How the values were obtained:
[1] = molecular target: T1, TRα (Homo sapiens, UniProt P10827); assay: Thyroid-hormone reporter-gene assay (TRα-Gal4 hybrid, luciferase, HEK293); format: cell-based; conditions: reporter cells, 24 hr incubation; Table 2; read-out: TRα (EC50)
T1 construct: expressed in transfected cells; host or cells: HEK293
T1 sequence (P10827 163-410 isoform P10827-2 limits assumed): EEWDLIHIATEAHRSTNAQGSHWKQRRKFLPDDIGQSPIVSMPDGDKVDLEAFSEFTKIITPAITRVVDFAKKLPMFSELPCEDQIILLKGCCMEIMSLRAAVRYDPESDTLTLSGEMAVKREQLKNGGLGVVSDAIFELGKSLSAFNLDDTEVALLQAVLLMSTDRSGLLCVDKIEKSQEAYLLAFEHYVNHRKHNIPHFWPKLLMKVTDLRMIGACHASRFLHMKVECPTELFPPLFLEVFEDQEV
Method: (§1) Compounds were tested for thyroid-hormone receptor activity using TR reporter-gene assays. Reporter cells used in the assays express a TR-receptor hybrid (either TRα or TRβ) in which the native N-terminal DNA binding domain (DBD) has been replaced with that of the yeast Gal4 DBD. The reporter gene, firefly luciferase, is functionally linked to the Gal4 upstream activation sequence (UAS). Both cell lines were derived from human embryonic kidney (HEK293).
(§2) Step 1: A suspension of reporter cells was prepared in cell recovery medium containing 10% charcoal-stripped FBS, and dispensed into assay plates. The plates were pre-incubated for 6 hours in a cell culture incubator (37° C./5% CO2/85% humidity).
(§3) These intermediate stocks were subsequently diluted directly into compound screening medium containing 10% charcoal-stripped FBS to generate “2×-concentration” treatment media (containing 0.2, 0.4 or 0.8% DMSO).
(§4) Step 3: At the end of the pre-incubation period, culture media were discarded from the assay plates, and all wells received 100 μl of compound screening medium. 100 μl of each of the previously prepared “2×-concentration” treatment media were dispensed into duplicate assay wells, thereby achieving the desired final treatment concentrations. The final concentration of DMSO in all assay wells was 0.1, 0.2 or 0.4%. Assay plates were incubated for 24 hr in a cell culture incubator (37° C./5% CO2/85% humidity).
(§5) Step 4: At the 24 h assay endpoint, treatment media were discarded and 100 μl/well of luciferase detection reagent was added. Relative luminometer units (RLUs) were quantified from each assay well.

[2] = molecular target: T2, TRβ (Homo sapiens, UniProt P10828); assay: Thyroid-hormone reporter-gene assay (TRβ-Gal4 hybrid, luciferase, HEK293); format: cell-based; conditions: Table 2; for T3-SI (selectivity index): calculated as EC50 (TRα)/EC50 (TRβ); for EC50: reporter cells, 24 hr incubation, read-out: TRβ (EC50)
T2 construct: expressed in transfected cells; host or cells: HEK293
T2 sequence (P10828 217-461 limits assumed): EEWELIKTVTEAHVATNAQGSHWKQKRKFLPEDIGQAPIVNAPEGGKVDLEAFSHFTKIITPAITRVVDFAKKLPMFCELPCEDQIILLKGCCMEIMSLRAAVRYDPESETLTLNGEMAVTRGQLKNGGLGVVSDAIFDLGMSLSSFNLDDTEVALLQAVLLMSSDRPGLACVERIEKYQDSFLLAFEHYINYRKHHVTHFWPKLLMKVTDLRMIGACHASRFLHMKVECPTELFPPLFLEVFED
Method: as §1, §2, §3, §4, §5

EC50 [1] [nM]	T3-SI (selectivity index) [2]	EC50 [2] [nM]	Compound
> 1000	++ (3×<T3-SI≤30×)	100 to 1000	C=C(C)c1c(F)c(OCC(=O)O)cc(Cl)c1Cc1ccc(O)c(C(C)C)c1F [Compound 121, 2-(5-chloro-2-fluoro-4-(2-fluoro-4-hydroxy-3-isopropylbenzyl)-3-(prop-1-en-2-yl)phenoxy)acetic acid]
100 to 1000	++ (3×<T3-SI≤30×)	10 to 100	CCc1cc(OCC(=O)Nc2onc(C)c2C)cc(Cl)c1Cc1ccc(O)c(C(C)C)c1F [Compound 142, 2-(3-chloro-5-ethyl-4-(2-fluoro-4-hydroxy-3-isopropylbenzyl)phenoxy)-N-(3,4-dimethylisoxazol-5-yl)acetamide]
10 to 100	+++ (T3-SI>30×)	10 to 100	O=C(O)COc1cc(Cl)c(Cc2ccc(O)c(Cc3ccc(F)cc3)c2F)c(Cl)c1F [Compound 103, 2-(3,5-dichloro-2-fluoro-4-(2-fluoro-3-(4-fluorobenzyl)-4-hydroxybenzyl)phenoxy)acetic acid]
10 to 100	++ (3×<T3-SI≤30×)	< 10	C=C(C)c1cc(OCC(=O)O)cc(Cl)c1Cc1ccc(O)c(C(C)C)c1F [Compound 46, 2-(3-chloro-4-(2-fluoro-4-hydroxy-3-isopropylbenzyl)-5-(prop-1-en-2-yl)phenoxy)acetic acid]
< 10	++ (3×<T3-SI≤30×)	< 10	Cc1cc(OCC(=O)O)cc(C(C)C)c1Cc1ccc(O)c(C(C)C)c1F [Compound 13, 2-(4-(2-fluoro-4-hydroxy-3-isopropylbenzyl)-3-isopropyl-5-methylphenoxy)acetic acid]
10 to 100	++ (3×<T3-SI≤30×)	10 to 100	CCc1cc(OCC(=O)O)c(F)c(Cl)c1Cc1ccc(O)c(C(C)C)c1 [Compound 77, 2-(3-chloro-5-ethyl-2-fluoro-4-(4-hydroxy-3-isopropylbenzyl)phenoxy)acetic acid]
10 to 100	++ (3×<T3-SI≤30×)	10 to 100	CNC(=O)COc1cc(Cl)c(Cc2ccc(O)c(C(C)C)c2)c(Cl)c1OC [Compound 167, 2-(3,5-dichloro-4-(4-hydroxy-3-isopropylbenzyl)-2-methoxyphenoxy)-N-methylacetamide]
10 to 100	+++ (T3-SI>30×)	< 10	Cc1cc(OCC(=O)O)c(F)c(Cl)c1Cc1ccc(O)c(C(C)C)c1F [Compound 109, 2-(3-chloro-2-fluoro-4-(2-fluoro-4-hydroxy-3-isopropylbenzyl)-5-methylphenoxy)acetic acid]
100 to 1000	++ (3×<T3-SI≤30×)	10 to 100	O=C(O)COc1cc(Cl)c(Cc2ccc(O)c(-c3cccc(OC(F)F)c3)c2F)c(Cl)c1 [Compound 24, 2-(3,5-dichloro-4-((3′-(difluoromethoxy)-2-fluoro-6-hydroxy-[1,1′-biphenyl]-3-VI)methyl)phenoxy)acetic acid]
> 1000	++ (3×<T3-SI≤30×)	100 to 1000	CCCC(c1ccc(F)cc1)c1c(O)ccc(Cc2c(Cl)cc(OCC(=O)O)cc2Cl)c1F (stereo not drawn) [Compound 34, 2-(3,5-dichloro-4-(2-fluoro-3-(1-(4-fluorophenyl)butyl)-4-hydroxybenzyl)phenoxy)acetic acid]
10 to 100	++ (3×<T3-SI≤30×)	10 to 100	CCc1cc(OCC(=O)O)cc(C)c1Cc1ccc(O)c(C(C)C)c1F [Compound 9, 2-(3-ethyl-4-(2-fluoro-4-hydroxy-3-isopropylbenzyl)-5-methylphenoxy)acetic acid]
10 to 100	++ (3×<T3-SI≤30×)	10 to 100	O=C(O)COc1cc(Cl)c(Cc2ccc(O)c(Cc3ccc(F)cc3)c2F)c(Cl)c1 [Compound 28, 2-(3,5-dichloro-4-(2-fluoro-3-(4-fluorobenzyl)-4-hydroxybenzyl)phenoxy)acetic acid]
100 to 1000	+++ (T3-SI>30×)	10 to 100	O=C(O)COc1cc(Cl)c(Cc2ccc(O)c(Cc3ccc(F)cc3)c2)c(Cl)c1F [Compound 83, 2-(3,5-dichloro-2-fluoro-4-(3-(4-fluorobenzyl)-4-hydroxybenzyl)phenoxy)acetic acid]
> 1000	+++ (T3-SI>30×)	100 to 1000	CC(C)c1cc(Cc2c(Cl)cc(OCC(=O)O)c(F)c2C(C)C)ccc1O [Compound 73, 2-(5-chloro-2-fluoro-4-(4-hydroxy-3-isopropylbenzyl)-3-isopropylphenoxy)acetic acid]
10 to 100	++ (3×<T3-SI≤30×)	10 to 100	CCc1cc(OCC(=O)O)cc(Cl)c1Cc1ccc(O)c(C(C)C)c1F [Compound 43, 2-(3-chloro-5-ethyl-4-(2-fluoro-4-hydroxy-3-isopropylbenzyl)phenoxy)acetic acid]
100 to 1000	++ (3×<T3-SI≤30×)	10 to 100	CC(C)c1c(O)ccc(Cc2c(Cl)cc(OCC(=O)O)c(F)c2C(C)C)c1F [Compound 123, 2-(5-chloro-2-fluoro-4-(2-fluoro-4-hydroxy-3-isopropylbenzyl)-3-isopropylphenoxy)acetic acid]
> 1000	++ (3×<T3-SI≤30×)	100 to 1000	CCc1c(F)c(OCC(=O)O)cc(Cl)c1Cc1ccc(O)c(C(C)C)c1 [Compound 69, 2-(5-chloro-3-ethyl-2-fluoro-4-(4-hydroxy-3-isopropylbenzyl)phenoxy)acetic acid]
> 1000	++ (3×<T3-SI≤30×)	100 to 1000	Cc1cc(OCC(=O)O)cc(C)c1Cc1ccc(O)c(-c2cccc(OC(F)F)c2)c1F [Compound 3, 2-(4-((3′-(difluoromethoxy)-2-fluoro-6-hydroxy-[1,1′-biphenyl]-3-yl)methyl)-3,5-dimethylphenoxy)acetic acid]
100 to 1000	+++ (T3-SI>30×)	10 to 100	Cc1cc(OCC(=O)O)c(F)c(C)c1Cc1ccc(O)c(C(C)C)c1 [Compound 58, 2-(2-fluoro-4-(4-hydroxy-3-isopropylbenzyl)-3,5-dimethylphenoxy)acetic acid]
10 to 100	++ (3×<T3-SI≤30×)	< 10	CC(c1ccc(F)cc1)c1c(O)ccc(Cc2c(Cl)cc(OCC(=O)O)cc2Cl)c1F (stereo not drawn) [Compound 30, 2-(3,5-dichloro-4-(2-fluoro-3-(1-(4-fluorophenyl)ethyl)-4-hydroxybenzyl)phenoxy)acetic acid]
> 1000	+++ (T3-SI>30×)	100 to 1000	CCOC(=O)COc1cc(F)c(Cc2ccc(O)c(C(C)C)c2)c(Cl)c1F [Compound 147, ethyl 2-(3-chloro-2,5-difluoro-4-(4-hydroxy-3-isopropylbenzyl)phenoxy)acetate]
10 to 100	++ (3×<T3-SI≤30×)	10 to 100	CON(C)C(=O)COc1cc(Cl)c(Cc2ccc(O)c(C(C)C)c2F)c(Cl)c1 [Compound 22, 2-(3,5-dichloro-4-(2-fluoro-4-hydroxy-3-isopropylbenzyl)phenoxy)-N-methoxy-N-methylacetamide]

Reference: US12466781B2, “Thyromimetics” (Autobahn Therapeutics, Inc., priority 2019, dated 2025)
